Reference: US20250134683A1, “MICRO-NANO MEDICAL STENT FOR DIRECTIONAL, QUANTITATIVE AND TIMED RELEASE OF DRUG AND PREPARATION METHOD THEREOF” (GUANGDONG UNIVERSITY OF TECHNOLOGY, priority 2023, published 2025)

Experiment: sequential release of drugs from core-shell nano-disordered electrospun fiber structure
Type: physicochemical
Details: composite electrospun layer of Example 1; roxithromycin in shell layer fiber, human epidermal growth factor in core layer fiber
Excerpt: Moreover, the transmission electron microscopic image of the core-shell nano-disordered electrospun fiber structure in the composite electrospun layer prepared in Example 1 is shown in FIG. 3. […] The coaxial electrospinning realizes the sequential and timed release of the two drugs in the same electrospun layer. Further, the electrospun layer can be prepared by triaxial electrospinning or multiaxial electrospinning process, which has a core-shell structure of three core layers or multi-core layers, thereby achieving the sequential and timed release of three or more drugs in the same electrospun layer.

CC[C@H]1OC(=O)[C@H](C)[C@@H](O[C@H]2C[C@@](C)(OC)[C@@H](O)[C@H](C)O2)[C@H](C)[C@@H](O[C@@H]2O[C@H](C)C[C@H](N(C)C)[C@H]2O)[C@](C)(O)C[C@@H](C)/C(=N\OCOCCOC)[C@H](C)[C@@H](O)[C@]1(C)O [roxithromycin]
order of drug release from core-shell fiber: released in advance
